Test results as given in PubChem BioAssay (NCI).
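Five concentrations, 48 hours, 96-well plates. GI50: concentration for 50% inhibition of growth. TGI is the concentration that stops growth completely.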

Tests used:
Assay in all cases: DTP human tumour cell line panel, 48 h
[1] = system: NCI-H522 lung
[2] = system: HOP-62 NSCLC
[3] = system: HCT-15 colon
[4] = system: SF-539 CNS
[5] = system: SN12C renal
[6] = system: K-562 leukemia
[7] = system: IGROV1 ovarian
[8] = system: SK-MEL-28 melanoma
[9] = system: 786-0 renal
[10] = system: BT-549 breast

SMILES | TGI [1] [µM] | TGI [2] [µM] | TGI [3] [µM] | TGI [4] [µM] | TGI [5] [µM] | TGI [6] [µM] | TGI [7] [µM] | TGI [8] [µM] | TGI [9] [µM] | TGI [10] [µM] | GI50 [1] [µM] | GI50 [2] [µM] | GI50 [3] [µM] | GI50 [4] [µM] | GI50 [5] [µM] | GI50 [6] [µM] | GI50 [7] [µM] | GI50 [8] [µM] | GI50 [10] [µM]
Cc1cc(C)nc(NC(=S)Nc2ccc(Cl)cc2)c1 | 39.1 | > 100 | > 100 | > 100 | > 100 | > 100 | > 100 | > 100 | 80.2 | > 100 |  |  |  |  |  |  |  |  | 
Cc1cc(NS(=O)(=O)c2ccc(NC(=O)c3ccc4nc5ccccc5c(Nc5ccc(S(=O)(=O)Nc6cc(C)on6)cc5)c4c3)cc2)no1 | > 50 | > 50 | > 50 | > 50 | > 50 | > 50 | > 50 | > 50 | > 50 | > 50 |  |  |  |  |  |  |  |  | 
O=S(=O)(O)c1ccc2c(N=Nc3c(O)ccc4ccccc34)cccc2c1 | > 100 | > 100 | > 100 | > 100 | > 100 | 98.1 | > 100 | > 100 | > 100 | > 100 |  |  |  |  |  |  |  |  | 
CON(C)C(=O)C(C)NC(=O)OC(C)(C)C (stereo not given) |  | > 100 | > 100 | > 100 | > 100 | > 100 | > 100 | > 100 | > 100 | > 100 |  |  |  |  |  |  |  |  | 
CO[C@]12C[C@@H](CNC(=O)c3cc(Br)c[nH]3)O[C@H]1NC(=O)N2 | > 100 | > 100 | > 100 | > 100 | > 100 | > 100 | > 100 | > 100 | > 100 | > 100 |  |  |  |  |  |  |  |  | 
CCOc1cc(/C=C/C(=O)CC(=O)/C=C/c2ccc(OC(=O)CNCCN(CC)CC)c(OCC)c2)ccc1OC(=O)CNCCN(CC)CC | 5.13 | 6.06 | 4.66 | 3.1 | 6.25 | 16.3 | 3.83 | 4.56 |  | 3.52 | 1.8 | 2.5 | 2.06 | 1.38 | 2 | 1.44 | 1.97 | 1.96 | 1.45
CCOc1cc2c(cc1O)CC[C@@H]1[C@@H]2CC[C@]2(C)[C@@H](O)CC[C@@H]12 | 0.0197 | 15.1 | 27.2 | 0.0426 | 46.3 | 6.24 | 56.1 | 77.5 | 47.1 | 18.3 |  |  |  |  |  |  |  |  | 
Clc1cccc2[nH]ncc12 | > 100 | > 100 | > 100 | > 100 | > 100 | > 100 | > 100 | > 100 | > 100 | > 100 |  |  |  |  |  |  |  |  | 
O=S(=O)(c1ccc2ccccc2c1)N1CCN(S(=O)(=O)c2ccc3ccccc3c2)CC1 | > 100 | > 100 | > 100 |  | > 100 | > 100 | > 100 | > 100 | > 100 | > 100 |  |  |  |  |  |  |  |  | 
CC(=O)Nc1sccc1S(=O)(=O)c1ccc(Cl)cc1 | > 100 |  | > 100 | > 100 | > 100 | > 100 | > 100 | > 100 | > 100 | > 100 |  |  |  |  |  |  |  |  | 
CC1=NNC(=O)[C@H]2[C@H]1CCC1[C@@H]2CC[C@]2(C)[C@@H](O)CC[C@@H]12 (stereo not given in full) | > 100 | > 100 | > 100 | > 100 | > 100 | > 100 | > 100 | > 100 | > 100 | > 100 |  |  |  |  |  |  |  |  | 
FC(F)(F)c1cnc(N/N=C(/c2ccccc2)c2ccccn2)c(Cl)c1 | 4.74 | 20.3 | 33.7 | 14.4 | > 100 | > 100 | 11.5 | > 100 | 17.9 | 29.8 |  |  |  |  |  |  |  |  | 
CCOP(=O)(/C=C\n1ccc(=O)[nH]c1=O)OCC | > 100 | > 100 | > 100 | > 100 | > 100 | > 100 | > 100 | > 100 | > 100 | > 100 |  |  |  |  |  |  |  |  | 
O=C(Nc1ccc(Cl)c(C(F)(F)F)c1)C(=O)c1c(O)c2ccccc2oc1=O | > 100 | > 100 | > 100 | > 100 | > 100 | > 100 | > 100 | > 100 | > 100 | > 100 |  |  |  |  |  |  |  |  | 
CC1(CCCCO)C=CC(S(=O)(=O)c2ccccc2)CC1 (stereo not given) | 10.4 | 12.1 | 13.3 | 20.2 | 23.6 | 11.6 | 12.1 | 28.5 | 14.8 | 27.5 |  |  |  |  |  |  |  |  | 
CCCCOc1ccc(S(=O)(=O)/N=C(\N)Nc2ccc(Cl)cc2)cc1 | 23 | 44.2 | 27.6 | 54.9 | 30.1 | 37.4 | 28.9 | 32 | 30.9 | 32.5 |  |  |  |  |  |  |  |  | 
N#Cc1c(N)nc2n[nH]c(N)c2c1-c1ccccc1 | 18 | 63.9 | > 77.8 | 21.1 | 31.8 | > 100 | 13.4 | 77.2 | 69.8 | 40.2 |  |  |  |  |  |  |  |  | 
Nc1nc2c(c(=O)[nH]1)NC(CCNc1ccc(C(=O)O)cc1)CN2 (stereo not given) | > 100 | > 100 | > 100 | > 100 | > 100 | > 100 | > 100 | > 100 | > 100 | > 100 |  |  |  |  |  |  |  |  | 
O=S(=O)(/N=C(\NO)Nc1ccc(Cl)cc1)c1cc(S(=O)(=O)c2ccccc2)cs1 | 25.2 | 33.5 | 44.3 | 32.4 | 33.6 | 31.6 | 44.9 | 41.2 | 30 | 45.7 |  |  |  |  |  |  |  |  | 
COc1ccc2c(C(=O)c3c(C)n(CCN4CCOCC4)c4ccccc34)cccc2c1 | 50.2 | > 100 | > 100 | > 100 | > 100 | > 100 | > 100 | > 100 | > 100 | 98.1 |  |  |  |  |  |  |  |  | 
